Results on three molecules are retold here after paper PMC6180429 (Organic & Biomolecular Chemistry, 2018).

In experiment [1] the target is T1, PPARγ (peroxisome proliferator-activated receptor γ) (Homo sapiens, UniProt P37231).
T1 construct: gene PPARG
T1 sequence (P37231 232-505 limits assumed): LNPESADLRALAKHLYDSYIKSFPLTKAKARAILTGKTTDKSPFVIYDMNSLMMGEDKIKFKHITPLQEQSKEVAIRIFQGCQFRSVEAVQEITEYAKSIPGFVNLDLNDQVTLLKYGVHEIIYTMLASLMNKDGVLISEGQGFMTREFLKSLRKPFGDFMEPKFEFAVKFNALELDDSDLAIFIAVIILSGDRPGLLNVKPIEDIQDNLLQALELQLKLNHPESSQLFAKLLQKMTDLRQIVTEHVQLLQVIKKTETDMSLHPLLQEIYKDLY
Briefly: Gal4-PPARγ reporter assay in HEK293 cells, antagonism of […] pioglitazone. The format is cell-based.

Experiment [2] concerns the target T1, PPARγ (peroxisome proliferator-activated receptor γ). The experiment in a line: Gal4-PPARγ-LBD one-hybrid luciferase reporter assay in HEK293 cells (partial agonist). The class given is cell-based.

On to `C=CCc1ccc(O)cc1CCC/C=C\Cc1ccc(O)cc1` [V, Truncated magnolol dimer], for which the “Gal4-PPARγ reporter assay in HEK293 cells, antagonism of 10 μM pioglitazone” value in experiment [1] is on record as “V showed a dose-dependent inhibition of the pioglitazone induced PPARγ-Gal4 activation”.

What is called EC50 is the concentration at which the effect is half-maximal. Low readings indicate greater potency, high ones weaker potency. With `C=CCc1ccc(O)c(-c2cc(CC=C)c(CCC/C=C\Cc3ccc(O)cc3)cc2O)c1` [III, Sesqui magnolol A], the EC50 in experiment [2] stood at 1070 nM. Still for that read-out and setting: with `C=CCc1ccc(O)c(-c2cc(C/C=C\CCCc3cc(O)ccc3CC=C)ccc2O)c1` [IV, Sesqui magnolol B] the figure was 770 nM.
